Results taken from patent publication EP0343801A2, “N-(5,6,7,8-tetrahydropyrido(2,3-D)pyrimidin-6-yl-alkanoyl)-glutamic acid derivatives” (THE TRUSTEES OF PRINCETON UNIVERSITY, priority 1988, dated 1989).
≈ marks a conversion by molar mass, not a printed value.

Tests used:
CCRF-CEM = test: IC50 in whole cell human leukemia cell lines, CCRF-CEM; assay type: cell-based; settings: read-out: IC₅₀
Protocol: The IC₅₀ in whole cell human leukemia cell lines, CCRF-CEM, of N-[5-(2-{2-amino-4-hydroxy-5,6,7,8-tetrahydropyrido[2,3-d]pyrimidin-6-yl}ethyl)thien-2-ylcarbonyl]-L-glutamic acid is 0.0015 ug/mL. The IC₅₀ of N-[5-(2-{2-amino-4-hydroxy-5,6,7,8-tetrahydropyrido[2,3-d]pyrimidin-6-yl}ethyl)fur-2-ylcarbonyl]-L-glutamic acid is 0.010 ug/mL. The IC₅₀ of N-[4-(2-{2-amino-4-hydroxy-5,6,7,8-tetrahydropyrido[2,3-d]pyrimidin-6-yl}-ethyl)thien-2-ylcarbonyl]-L-glutamic acid is 0.0756 ug/mL.
The IC₅₀ in whole cell human leukemia cell lines, CCRF-CEM, of other compounds of this invention are as follows: […]

[1] = test system: 6C3HED lymphosarcoma tumors; test: In vivo evaluation against 6C3HED lymphosarcoma tumors in mice; settings: IP, daily administration
CX-1 Colon Xenography = test: In vivo evaluation against CX-1 Colon Xenography in mice; settings: IP, daily administration, days 1, 4, 7, 10
LX-1 Lung Xenography = test: In vivo evaluation against LX-1 Lung Xenography in mice; settings: IP, daily administration, days 1, 4, 7, 10
[2] = test system: C3H Mammary Adenocarcinoma tumors; test: In vivo evaluation against C3H Mammary Adenocarcinoma tumors in mice; settings: IP, daily administration, days 1, 4, 7, 10
MX-1 Mammary Xenography = test: In vivo evaluation against MX-1 Mammary Xenography in mice; settings: IP, daily administration, days 1, 4, 7, 10
[3] = test system: CA-755 Adenocarcinoma tumors; test: In vivo evaluation against CA-755 Adenocarcinoma tumors in mice; settings: IP, daily administration, days 1, 4, 7, 10
B-16 Melanoma tumors = test: In vivo evaluation against B-16 Melanoma tumors in mice; settings: IP, daily administration, days 1, 7

In the case of Nc1nc(O)c2c(n1)NCC(CCCCC(=O)N[C@@H](CCC(=O)O)C(=O)O)C2 (stereo partly drawn) [-(CH₂)₂-, N-[5-(2-amino-4-hydroxy-5,6,7,8-tetrahydropyrido[2,3-d]pyrimidin-6-yl)pentanoyl]-L-glutamic acid], the IC50 (CCRF-CEM) is reported as 0.023 µg/mL (≈ 0.0582 µM).

Nc1nc(O)c2c(n1)NCC(CCCCCC(=O)N[C@@H](CCC(=O)O)C(=O)O)C2 (stereo partly drawn) [-(CH₂)₃-, N-[6-(2-Amino-4-hydroxy-5,6,7,8-tetrahydropyrido[2,3-d]pyrimidin-6-yl)hexanoyl]-L-glutamic Acid] gave an IC50 (CCRF-CEM) of 0.0075 µg/mL (≈ 0.0183 µM).

Nc1nc(O)c2c(n1)NCC(CCCCCCC(=O)N[C@@H](CCC(=O)O)C(=O)O)C2 (stereo partly drawn) [-(CH₂)₄- CH₂-CH₂, N-[7-(2-Amino-4-hydroxy-5,6,7,8-tetrahydropyrido[2,3-d]pyrimidin-6-yl)heptanoyl]-L-glutamic acid] was tested, and the IC50 (CCRF-CEM) was 0.034 µg/mL (≈ 0.0803 µM).

In the case of Nc1nc(O)c2c(n1)NCC(CCCC(=O)N[C@@H](CCC(=O)O)C(=O)O)C2 (stereo partly drawn) [N-[4-(2-amino-4-hydroxy-5,6,7,8-tetrahydropyrido[2,3-d]pyrimidin-6-yl)butyryl]-L-glutamic acid], the “% Inhibition” value ([1]; 3.12 mg/kg, eight days) is reported as 0%, the Toxicity ([1]; 3.12 mg/kg, eight days) is reported as 0/10 and the “% Inhibition” value ([1]; 6.25 mg/kg, eight days) is reported as 11%. The Toxicity ([1]; 6.25 mg/kg, eight days) was 0/10, the “% Inhibition” value ([1]; 12.5 mg/kg, eight days) was 62% and the Toxicity ([1]; 12.5 mg/kg, eight days) was 0/10. For the same compound, the “% Inhibition” value ([1]; 25 mg/kg, eight days) was 88%, the Toxicity ([1]; 25 mg/kg, eight days) was 0/10 and the “% Inhibition” value ([1]; 50 mg/kg, eight days) was 98%. The Toxicity ([1]; 50 mg/kg, eight days) was 1/10.

Nc1nc(O)c2c(n1)NCC(CCc1csc(C(=O)N[C@@H](CCC(=O)O)C(=O)O)c1)C2 (stereo partly drawn) [N-[4-(2-{2-amino-4-hydroxy-5,6,7,8-tetrahydropyrido[2,3-d]pyrimidin-6-yl}ethyl)thien-2-ylcarbonyl]-L-glutamic acid] showed an IC50 (CCRF-CEM) of 0.0756 µg/mL (≈ 0.168 µM).

For Nc1nc(O)c2c(n1)NCC(CCc1ccc(C(=O)N[C@@H](CCC(=O)O)C(=O)O)s1)C2 (stereo partly drawn) [N-[5-(2-{2-Amino-4-hydroxy-5,6,7,8-tetrahydropyrido[2,3-d]pyrimidin-6-yl}ethyl)thien-2-ylcarbonyl]-L-glutamic Acid], the “% Inhibition” value (CX-1 Colon Xenography; 5 mg/kg) was 90%, the Toxicity (CX-1 Colon Xenography; 5 mg/kg) was 3/10 and the “% Inhibition” value (CX-1 Colon Xenography; 10 mg/kg) was 94%. For the same compound, the Toxicity (CX-1 Colon Xenography; 10 mg/kg) was 6/10, the “% Inhibition” value (CX-1 Colon Xenography; 20 mg/kg) was 91% and the Toxicity (CX-1 Colon Xenography; 20 mg/kg) was 9/10. The “% Inhibition” value (CX-1 Colon Xenography; 40 mg/kg) was “toxic”, the Toxicity (CX-1 Colon Xenography; 40 mg/kg) was 10/10 and the “% Inhibition” value (LX-1 Lung Xenography; 10 mg/kg) was 98%. The Toxicity (LX-1 Lung Xenography; 10 mg/kg) was 0/8, the “% Inhibition” value (LX-1 Lung Xenography; 20 mg/kg) was 100% and the Toxicity (LX-1 Lung Xenography; 20 mg/kg) was 4/8. For the same compound, the “% Inhibition” value (LX-1 Lung Xenography; 40 mg/kg) was “toxic”, the Toxicity (LX-1 Lung Xenography; 40 mg/kg) was 8/8 and the “% Inhibition” value ([2]; 2.5 mg/kg) was 71%. For the same compound, the Toxicity ([2]; 2.5 mg/kg) was 0/10, the “% Inhibition” value ([2]; 5 mg/kg) was 90% and the Toxicity ([2]; 5 mg/kg) was 1/10. For the same compound, the “% Inhibition” value ([2]; 10 mg/kg) was 94%, the Toxicity ([2]; 10 mg/kg) was 0/10 and the “% Inhibition” value ([2]; 20 mg/kg) was 100%. The Toxicity ([2]; 20 mg/kg) was 0/10, the “% Inhibition” value ([2]; 40 mg/kg) was 100% and the Toxicity ([2]; 40 mg/kg) was 0/10. For the same compound, the IC50 (CCRF-CEM) was 0.0015 µg/mL (≈ 0.00334 µM), the “% Inhibition” value (MX-1 Mammary Xenography; 5 mg/kg) was 84% and the Toxicity (MX-1 Mammary Xenography; 5 mg/kg) was 3/10. The “% Inhibition” value (MX-1 Mammary Xenography; 10 mg/kg) was 96%, the Toxicity (MX-1 Mammary Xenography; 10 mg/kg) was 5/10 and the “% Inhibition” value (MX-1 Mammary Xenography; 20 mg/kg) was “toxic”. The Toxicity (MX-1 Mammary Xenography; 20 mg/kg) was 9/9, the “% Inhibition” value (MX-1 Mammary Xenography; 40 mg/kg) was “toxic” and the Toxicity (MX-1 Mammary Xenography; 40 mg/kg) was 10/10. For the same compound, the “% Inhibition” value ([3]; 20 mg/kg) was 78%, the Toxicity ([3]; 20 mg/kg) was 0/10 and the “% Inhibition” value ([3]; 40 mg/kg) was 83%. For the same compound, the Toxicity ([3]; 40 mg/kg) was 0/10, the “% Inhibition” value (B-16 Melanoma tumors; 50 mg/kg) was 38% and the Toxicity (B-16 Melanoma tumors; 50 mg/kg) was 0/9. The “% Inhibition” value (B-16 Melanoma tumors; 100 mg/kg) was 73%, the Toxicity (B-16 Melanoma tumors; 100 mg/kg) was 3/10 and the “% Inhibition” value (B-16 Melanoma tumors; 200 mg/kg) was 93%. For the same compound, the Toxicity (B-16 Melanoma tumors; 200 mg/kg) was 4/10, the “% Inhibition” value ([1]; 0.78 mg/kg, 10 days) was 93% and the Toxicity ([1]; 0.78 mg/kg, 10 days) was 0/10. The “% Inhibition” value ([1]; 1.56 mg/kg, 10 days) was 100%, the Toxicity ([1]; 1.56 mg/kg, 10 days) was 0/10 and the “% Inhibition” value ([1]; 3.12 mg/kg, 10 days) was 100%. For the same compound, the Toxicity ([1]; 3.12 mg/kg, 10 days) was 6/10, the “% Inhibition” value ([1]; 6.25 mg/kg, 10 days) was “toxic” and the Toxicity ([1]; 6.25 mg/kg, 10 days) was 10/10.

With Nc1nc(O)c2c(n1)NCC(CCc1ccc(C(=O)N[C@@H](CCC(=O)O)C(=O)O)o1)C2 (stereo partly drawn) [N-[5-(2-{2-amino-4-hydroxy-5,6,7,8-tetrahydropyrido[2,3-d]pyrimidin-6-yl}ethyl)fur-2-ylcarbonyl]-L-glutamic acid] the IC50 (CCRF-CEM) was 0.01 µg/mL (≈ 0.0231 µM), the “% Inhibition” value ([1]; 0.625 mg/kg, days 1, 4, 7) was 1% and the Toxicity ([1]; 0.625 mg/kg, days 1, 4, 7) was 0/10. For the same compound, the “% Inhibition” value ([1]; 1.25 mg/kg, days 1, 4, 7) was 29%, the Toxicity ([1]; 1.25 mg/kg, days 1, 4, 7) was 0/10 and the “% Inhibition” value ([1]; 2.5 mg/kg, days 1, 4, 7) was 98%. For the same compound, the Toxicity ([1]; 2.5 mg/kg, days 1, 4, 7) was 0/10, the “% Inhibition” value ([1]; 5 mg/kg, days 1, 4, 7) was 97% and the Toxicity ([1]; 5 mg/kg, days 1, 4, 7) was 0/10. For the same compound, the “% Inhibition” value ([1]; 10 mg/kg, days 1, 4, 7) was 100%, the Toxicity ([1]; 10 mg/kg, days 1, 4, 7) was 0/10 and the “% Inhibition” value ([1]; 20 mg/kg, days 1, 4, 7) was 100%. For the same compound, the Toxicity ([1]; 20 mg/kg, days 1, 4, 7) was 0/10, the “% Inhibition” value ([1]; 25 mg/kg, eight days) was 59% and the Toxicity ([1]; 25 mg/kg, eight days) was 0/10. The “% Inhibition” value ([1]; 50 mg/kg, eight days) was 69%, the Toxicity ([1]; 50 mg/kg, eight days) was 0/10 and the “% Inhibition” value ([1]; 100 mg/kg, eight days) was 89%. The Toxicity ([1]; 100 mg/kg, eight days) was 0/10.

Nc1nc(O)c2c(n1)NCC(CCC1CCC(C(=O)N[C@@H](CCC(=O)O)C(=O)O)CC1)C2 (stereo partly drawn) [N-{4-[2-(2-amino-4-hydroxy-5,6,7,8-tetrahydropyrido[2,3-d]pyrimidin-6-yl)ethyl]cyclohexylcarbonyl}-L-glutamic acid] was tested, and the IC50 (CCRF-CEM) was 0.007 µg/mL (≈ 0.0156 µM), the “% Inhibition” value ([1]; 12.5 mg/kg, eight days) was 18% and the Toxicity ([1]; 12.5 mg/kg, eight days) was 0/10. The “% Inhibition” value ([1]; 25 mg/kg, eight days) was 4%, the Toxicity ([1]; 25 mg/kg, eight days) was 0/10 and the “% Inhibition” value ([1]; 50 mg/kg, eight days) was 5%. For the same compound, the Toxicity ([1]; 50 mg/kg, eight days) was 0/10, the “% Inhibition” value ([1]; 100 mg/kg, eight days) was 22% and the Toxicity ([1]; 100 mg/kg, eight days) was 0/9.
